Experimental data as given in patent US20120004245A1, “COMPOUNDS FOR THE TREATMENT OF POSTERIOR SEGMENT DISORDERS AND DISEASES” (ALCON RESEARCH, LTD., priority 2010, published 2012).
Read-outs that look alike come from different tables or passages of the source.

Experiments:
[1] = tested on: preretinal neovascularization; assay: Rat oxygen-induced retinopathy (OIR) model, regression; type: in vivo; settings: for ED50 (nmole) / ED50 (μg): dose-response, single ivt injection; for Potency: relative to reference RTKi (=1)
From the text: (§1) METHODS: Pregnant Sprague-Dawley rats were received at 14 days gestation and subsequently gave birth on Day 22±1 of gestation. Immediately following parturition, pups were pooled and randomized into separate litters (n=17 pups/litter), placed into separate shoebox cages inside oxygen delivery chamber, and subjected to an oxygen-exposure profile from Day 0-14 postpartum. Litters were then placed into room air from Day 14/0 through Day 14/6 (days 14-20 postpartum). For prevention studies, each pup was randomly assigned into various treatment groups on Day 14/0. For those randomized into an injection treatment group: one eye received a 5 μl intravitreal injection of between 0.01%-1% of a RTKi and the contralateral eye received a 5 μl intravitreal injection of vehicle. At Day 14/6 (20 days postpartum), all animals were euthanized. For regression studies, each pup was randomly assigned as an oxygen-exposed control or into various treatment groups on […]. For those randomized into an injection treatment group: one eye received a 5 μl intravitreal injection of between 0.01%-1% RTKi and the contralateral eye received a 5 μl intravitreal injection of vehicle. At Day 14/7 (21 days postpartum), all animals were euthanized. Immediately following euthanasia, retinas from all rat pups were harvested, fixed in 10% neutral buffered formalin for 24 hours, subjected to ADPase staining, and fixed onto slides as whole mounts. Digital images were acquired from each retinal flat mount that was adequately prepared. Computerized image analysis was used to obtain a NV clockhour score from each readable sample. Each clockhour out of 12 total per retina was assessed for the presence or absence of preretinal NV. Statistical comparisons using median scores for NV clockhours from each treatment group were utilized in nonparametric analyses. Each noninjected pup represented one NV score by taking the average value of both eyes and was used in comparisons against each dosage group. Because the pups were randomly assigned and no difference was observed between oxygen-exposed control pups from all litters, the NV scores were combined for all treatment groups. P≦0.05 was considered statistically significant.

[2] = tested on: VEGF-induced retinal vascular permeability; assay: VEGF-induced retinal vascular permeability in the rat, intravitreal delivery; type: in vivo; settings: for Efficacy (0.1%) / Efficacy (1%): inhibition of VEGF-induced RVP vs vehicle-injected controls, *P<0.05; for Efficacy (0.1%): single ivt injection of 0.1% suspension; for Efficacy (1%): single ivt injection of 1% suspension; for ED50 (nmole) / ED50 (μg) / Potency: rat VEGF-induced RVP; for ED50 (nmole) / ED50 (μg): dose-response, single ivt injection; for Potency: relative to reference standard, * = equipotent, 95% CL encompass 1.0
Experimental: METHODS: Adult Sprague-Dawley rats were anesthetized with intramuscular ketamine/xylazine and their pupils dilated with topical cycloplegics. […] Ten μl of each compound was intravitreally injected in each treatment eye (n=5˜6 animals per group). Three days following first intravitreal injection, all animals received an intravitreal injection of 10 μl 500 ng hr VEGF in both eyes. Twenty-four hours post-injection of VEGF, intravenous infusion of 3% Evans blue dye was performed in all animals, where 50 mg/kg of Evans blue dye was injected via the lateral tail vein during general anesthesia. After the dye had circulated for 90 minutes, the rats were euthanized. The rats were then systemically perfused with balanced salt solution, and then both eyes of each rat were immediately enucleated and the retinas harvested using a surgical microscope. After measurement of the retinal wet weight, the Evans blue dye was extracted by placing the retina in a 0.2 ml formamide (Sigma) and then the homogenized and ultracentrifuged. Blood samples were centrifuged and the plasma diluted 100 fold in formamide. For both retina and plasma samples, 60 μl of supernatant was used to measure the Evans blue dye absorbance (ABS) with at 620/740 nm. The blood-retinal barrier breakdown and subsequent retinal vascular permeability as measured by dye absorbance were calculated as means+/−s.e.m. of net ABS/wet weight/plasma ABS. One way ANOVA was used to determine an overall difference between treatment means. And a test or Man-Whitney rank sum test was performed for a pair-wise comparison between treatment groups, where P<0.05 was considered significant.

[3] = tested on: laser-induced choroidal neovascularization (CNV); assay: Mouse laser-induced CNV, prevention; settings: single ivt injection
From the text: METHODS. CNV was generated by laser-induced rupture of Bruch's membrane. […] A hand-held cover slip was applied to the cornea and used as a contact lens to aid visualization of the fundus. Three to four retinal burns were placed in randomly assigned eye (right or left eye for each mouse) using the Alcon 532 nm EyeLite laser with a slit lamp delivery system. The laser burns were used to generate a rupture in Bruch's membrane, which was indicated ophthalmoscopically by the formation of a bubble under the retina. Only mice with laser burns that produced three bubbles per eye were included in the study. Burns were typically placed at the 3, 6, 9 or 12 o'clock positions in the posterior pole of the retina, avoiding the branch retinal arteries and veins.
Each mouse was randomly assigned into one of the following treatment groups: noninjected controls, sham-injected controls, vehicle-injected mice, or one of three Compound-injected groups. Control mice received laser photocoagulation in both eyes, where one eye received a sham injection, i.e. a pars plana needle puncture. For intravitreal-injected animals, one laser-treated eye received a 2 or 5 μl intravitreal injection of 0.1%-3% of a RTKi or vehicle. For prevention studies, the intravitreal injection was performed immediately after laser photocoagulation. […] At 14 days post-laser, all mice were anesthetized and systemically perfused with fluorescein-labeled dextran. Eyes were then harvested and prepared as choroidal flat mounts with the RPE side oriented towards the observer. All choroidal flat mounts were examined using a fluorescent microscope. Digital images of the CNV were captured, where the CNV was identified as areas of hyperfluorescence within the pigmented background. Computerized image analysis was used to delineate and measure the two dimensional area of the hyperfluorescent CNV per lesion (μm^2) for the outcome measurement. The median CNV area/burn per mouse per treatment group or the mean CNV area/burn per treatment group was used for statistical analysis depending on the normality of data distribution; P<0.05 was considered significant.

[4] = tested on: preretinal neovascularization; assay: Rat oxygen-induced retinopathy (OIR) model, prevention; type: in vivo; settings: for ED50 (nmole) / ED50 (μg) / Potency: Rat OIR Prevention; for ED50 (nmole) / ED50 (μg): dose-response, single ivt injection; for Potency: relative to reference RTKi (=1); for Efficacy (0.1%) Median-value / Efficacy (1%) Median-value: rat OIR prevention, vs vehicle, *P<0.05; for Efficacy (0.1%) Median-value: single ivt injection of 0.1% suspension; for Efficacy (1%) Median-value: single ivt injection of 1% suspension
From the text: as §1

[5] = tested on: bovine retinal endothelial cells (BRECs); assay: VEGF-induced proliferation of bovine retinal endothelial cells (BrdU ELISA); type: cell-based; settings: for EC50: Bos taurus, Endothelial cell, read-out: VEGF ind BREC prolif EC50
Experimental: METHODS. […] After another 22-24 hours the cells are treated with or without 50 ng/ml VEGF media and the test compounds in the 1% FBS media. After 30 hours BrdU is then added for the final 16 hours of the incubation. All cells are then fixed and assayed with a colorimetric BrdU ELISA kit.

[6] = 20 μg/1.0%, * significant vs vehicle-injected controls
[7] = 50 ng/ml VEGF, BrdU incorporation

SMILES	ED50 (nmole) [1] [nmol]	ED50 (μg) [1] [µg]	Potency [1]	Efficacy (0.1%) [2]	Efficacy (1%) [2]	ED50 (nmole) [2]	ED50 (μg) [2] [µg]	Potency [2]	Prevention Efficacy ([3]; 2 μg/0.1%)	Prevention Efficacy [3, 6]	ED50 (nmole) [4] [nmol]	ED50 (μg) [4] [µg]	Potency [4]	Efficacy (0.1%) Median-value [4]	Efficacy (1%) Median-value [4]	EC50 [5] [nM]	Relative Potency vs Reference ([5]; BREC proliferation, relative to reference standard RTKi)	EC50 [5, 7] [nM]	Prevention Efficacy ([3]; 6 μg/0.3%) [μg/0.3% = 13.9%]
Cc1cccc(NC(=O)Nc2ccc(-c3cncc4[nH]nc(N)c34)cc2)c1 [Compound I, 1-[4-(3-Amino-1H-pyrazolo[3,4-c]pyridin-4-yl)-phenyl]-3-m-tolyl-urea]	25.47	9.13	2.26	65.4%*	88.9%*	4.04^ nmole	1.447	1.2*	−53.8%	37.6%	13.44	4.82	5.75	100%*	100%*	0.16			
Cc1cccc(NC(=O)Nc2ccc(-c3csc4ncnc(N)c34)cc2)c1 [Compound II, 1-[4-(4-Amino-thieno[2,3-d]pyrimidin-5-yl)-phenyl]-3-m-tolyl-urea]	24.31	9.13	2.3	85.2%*	85.7%*	7.62 nmol	2.86	0.392*	2 μg/0.1% = 40.6%	20 μg/1.0% = 69.0%*	12.17	4.57	6.23	32.2%	100%*		14.5 ± 15.1	0.11	
Cc1cc(O)cc(NC(=O)Nc2ccc(-c3cccc4[nH]nc(N)c34)cc2)c1 [III, 1-[4-(3-Amino-1H-indazol-4-yl)-phenyl]-3-(3-hydroxy-5-methyl-phenyl)-urea]				−96.7%	−316.9%	>80.3 nmol	>30	0.028			15.85	5.92	4.03	1.5%	100%*			0.45 ± 0.05	
COCCOc1ccc(-c2ccc(NC(=O)Nc3cccc(C)c3)cc2)c2c(N)n[nH]c12 [IV, 1-{4-[3-Amino-7-(2-methoxy-ethoxy)-1H-indazol-4-yl]-phenyl}-3-m-tolyl-urea]				73.9%*	−148.2%				2 μg/0.1% = 1.1%	20 μg/1.0% = 49.7%*	13.23	5.71	4.2	100%*	100%*			0.1 ± 0.01	6
Cc1cccc(NC(=O)Nc2ccc(-c3csc4ccnc(N)c34)cc2)c1 [V, 1-[4-(4-Amino-thieno[3,2-c]pyridin-3-yl)-phenyl]-3-m-tolyl-urea]				64.0%	40.4%	3.8^ nmole	1.42	1.38*			24.11	9.03	1.94	16.9%	100%*			1.57 ± 1.24	
Cc1cccc(NC(=O)Nc2ccc(-c3csc4c(-c5ccncc5)cnc(N)c34)cc2)c1 [VI, 1-[4-(4-Amino-7-pyridin-4-yl-thieno[3,2-c]pyridin-3-yl)-phenyl]-3-m-tolyl-urea]	39.46	17.82	1.75	106.5%*	70.6%*						13.31	6.01	3.86	35.7%	88.4* %			0.07 ± 0.069	
Cc1cccc(NC(=O)Nc2ccc(-c3csc4c(-c5cccnc5)cnc(N)c34)cc2)c1 [VII, 1-[4-(4-Amino-7-pyridin-3-yl-thieno[3,2-c]pyridin-3-yl)-phenyl]-3-m-tolyl-urea]	20.86	9.42	2.49	84%*	73.5%*	5.47 nmol	2.47	0.621*			15.74	7.11	3.23	9.6%	100* %			0.11 ± 0.086	
